Values quoted from earlier work as cited in patent US8759098B2, “Method for cloning pluripotent stem cells” (Boston Biomedical Research Institute, Inc., priority 2009, dated 2014).

Tested on: human adult tissue
Conditions: used singly and in combination; Lin et al. 2009; cited from earlier work

SMILES: O=C(NOC[C@H](O)CO)c1ccc(F)c(F)c1Nc1ccc(I)cc1F [PD0325901]
- efficiency of creating stem cells from human adult tissue: dramatically improve the efficiency
